Patent US20100227921A1, “AMINO ACID AND PEPTIDE CARBAMATE PRODRUGS OF […] USES THEREOF” (SHIRE LLC, priority 2009, published 2010)
“And” between values parts separate entries of the source, which are not always exact repeats. Equal entries are not always repeated. Marks after values point to notes of the source that are not given here.

What was measured:
[1] = Comparative bioavailability after oral administration to rats (plasma LC-MS-MS); type: in vivo; details: male, Sprague Dawley, rat, plasma, po, 10 mg free base equiv/kg, oral tapentadol 10 mg free base equiv/kg
Procedure: Test substances, i.e., tapentadol or tapentadol valine carbamate were administered by oral gavage to groups of male Sprague Dawley rats.
(§1) Blood samples were taken at various times after administration and submitted to analysis for the parent drug and pro-drug using a validated LC-MS-MS assay. Pharmacokinetic parameters derived from the plasma analytical data were determined using Win Nonlin.

[2] = Comparative in vivo bioavailability study in the dog (oral gavage, plasma LC-MS-MS); details: for half-life / AUC / AUC(0-t) / Cmax / Tmax: Beagle, plasma, po
Procedure: Test substances (i.e., tapentadol (1 mg/kg) and tapentadol valine carbamate (0.8 mg tapentadol base equivalents/kg)) were administered by oral gavage to a group of five dogs (dog nos. 1, 2, 3, 4 and 5) in a two-way crossover design. The characteristics of the test animals are set out in Table 3.
as §1

[3] = Comparative bioavailability after oral or intravenous administration to monkeys (plasma LC-MS-MS); type: in vivo, cynomolgus monkey; details: monkey, below the quantitative limit
Procedure: Test substances i.e., tapentadol and tapentadol valine carbamate were administered (either intravenously or orally) to a group of five male cynomolgus monkeys in a three way crossover design. The oral doses were given at 1 mg tapentadol base equivalents/kg while the intravenous dose was 0.5 mg/kg
Blood samples were taken at various times after administration and submitted to analysis for the parent drug and tapentadol valine carbamate using a validated LC-MS-MS assay. Pharmacokinetic parameters derived from the plasma analytical data were determined using Win Nonlin.

[4] = oral tapentadol HCl 1 mg tapentadol base equiv/kg, individual dogs 1-5
[5] = oral tapentadol valine carbamate 0.8 mg tapentadol base equiv/kg, individual dogs 1-5

CC[C@@H](c1cccc(O)c1)[C@@H](C)CN(C)C (racemic) [Tapentadol, (−)-(1R,2R)-3-(3-dimethyl-amino-1-ethyl-2-methyl-propyl)-phenol]
AUC ([1]; mean, animal 5 and estimates excluded): 17.9 ng·h/mL
half-life ([1]; mean, animal 5 and estimates excluded, read-out: t½ of tapentadol (converted)): 2.64 h
AUC(0-t) ([1]; mean, animal 5 excluded, read-out: AUCt of tapentadol): 16.4 ng·h/mL
Cmax ([1]; mean, animal 5 excluded, read-out: Cmax of tapentadol): 4.67 ng/mL
Tmax ([1]; median, animal 5 excluded, read-out: Tmax of tapentadol): 1 h
half-life ([2]; 0.8 mg/kg, oral tapentadol valine carbamate 0.8 mg tapentadol base equiv/kg, calculated as ln2/mean k, read-out: t½ of tapentadol (converted)): 0.8 h
AUC ([2]; 0.8 mg/kg, oral tapentadol valine carbamate 0.8 mg tapentadol base equiv/kg, individual dogs 1-5, read-out: AUC of tapentadol): 31.4 ng·h/mL
AUC(0-t) ([2]; 0.8 mg/kg, oral tapentadol valine carbamate 0.8 mg tapentadol base equiv/kg, individual dogs 1-5, read-out: AUCt of tapentadol): 29.5 ng·h/mL
Cmax ([2]; 0.8 mg/kg, oral tapentadol valine carbamate 0.8 mg tapentadol base equiv/kg, individual dogs 1-5, read-out: Cmax of tapentadol): 13.7 ng/mL
Tmax ([2]; 0.8 mg/kg, oral tapentadol valine carbamate 0.8 mg tapentadol base equiv/kg, individual dogs 1-5, read-out: Tmax of tapentadol): 1 h
half-life ([2]; 0.8 mg/kg, oral tapentadol valine carbamate 0.8 mg tapentadol base equiv/kg, individual dogs 1-5, read-out: t½ of tapentadol (converted)): 0.8 h
AUC ([2]; 0.8 mg/kg, oral tapentadol valine carbamate 0.8 mg tapentadol base equiv/kg, mean of 5 dogs, read-out: AUC of tapentadol): 34.2 ng·h/mL
AUC(0-t) ([2]; 0.8 mg/kg, oral tapentadol valine carbamate 0.8 mg tapentadol base equiv/kg, mean of 5 dogs, read-out: AUCt of tapentadol): 32 ng·h/mL
Cmax ([2]; 0.8 mg/kg, oral tapentadol valine carbamate 0.8 mg tapentadol base equiv/kg, mean of 5 dogs, read-out: Cmax of tapentadol): 14.5 ng/mL
Tmax ([2]; 0.8 mg/kg, oral tapentadol valine carbamate 0.8 mg tapentadol base equiv/kg, median of 5 dogs, read-out: Tmax of tapentadol): 1 h
half-life ([2]; 1 mg/kg, oral tapentadol HCl 1 mg tapentadol base equiv/kg, calculated as ln2/mean k, read-out: t½ of tapentadol (converted)): 1.2 h
Tmax ([2]; 1 mg/kg, oral tapentadol HCl 1 mg tapentadol base equiv/kg, individual dogs 1-5, read-out: Tmax of tapentadol): 0.5 h
AUC ([2]; 1 mg/kg, oral tapentadol HCl 1 mg tapentadol base equiv/kg, mean of 5 dogs, read-out: AUC of tapentadol): 2.78 ng·h/mL
AUC(0-t) ([2]; 1 mg/kg, oral tapentadol HCl 1 mg tapentadol base equiv/kg, mean of 5 dogs, read-out: AUCt of tapentadol): 2.56 ng·h/mL
Cmax ([2]; 1 mg/kg, oral tapentadol HCl 1 mg tapentadol base equiv/kg, mean of 5 dogs, read-out: Cmax of tapentadol): 1.45 ng/mL
Tmax ([2]; 1 mg/kg, oral tapentadol HCl 1 mg tapentadol base equiv/kg, median of 5 dogs, read-out: Tmax of tapentadol): 0.5 h
AUC of tapentadol [2, 4]: 1.96 ng·h/mL and 2.02 ng·h/mL and 3.38 ng·h/mL and 4.53 ng·h/mL and 1.99 ng·h/mL
AUCt of tapentadol [2, 4]: 1.84 ng·h/mL and 1.88 ng·h/mL and 2.68 ng·h/mL and 4.48 ng·h/mL and 1.92 ng·h/mL
Cmax of tapentadol [2, 4]: 0.75 ng/mL and 1.77 ng/mL and 1.27 ng/mL and 2.39 ng/mL and 1.08 ng/mL
T>50%Cmax of tapentadol [2, 4]: 1.5 h (2×) and 0 h and 0.5 h (2×)
T>50%Cmax of tapentadol ([2]; oral tapentadol HCl 1 mg tapentadol base equiv/kg, median of 5 dogs): 0.5^a h
AUC of tapentadol [2, 5]: 25.5 ng·h/mL and 39.9 ng·h/mL and 29.1 ng·h/mL and 45.0 ng·h/mL
AUCt of tapentadol [2, 5]: 22.8 ng·h/mL and 36.4 ng·h/mL and 28.3 ng·h/mL and 43.2 ng·h/mL
Cmax of tapentadol [2, 5]: 11.1 ng/mL and 17.0 ng/mL and 11.7 ng/mL and 19.3 ng/mL
T>50%Cmax of tapentadol [2, 5]: 1 h (3×) and 1.5 h (2×)
Tmax of tapentadol [2, 5]: 2 h
t½ of tapentadol [2, 5]: 1.1 h and 0.9 h and 1.0 h and 0.6 h
T>50%Cmax of tapentadol ([2]; oral tapentadol valine carbamate 0.8 mg tapentadol base equiv/kg, median of 5 dogs): 1^a h
Plasma levels of tapentadol ([3]; after giving the drug (tapentadol)): < 0.5 ng/mL
Plasma levels of tapentadol ([3]; after giving the prodrug (tapentadol valine carbamate)): < 0.5 ng/mL
